# Laboratory results taken from article PMC10060569 (Frontiers in Pharmacology, 2023).
# pIC50: −log10 of the molar value. Where “and” joins values, the source holds several entries; their conditions need not be identical. Equal entries are not always repeated.
# How the values were obtained:
# [1] = molecular target: T1, S15V-hP2X3R (Homo sapiens, UniProt P56373, S15V); assay: TEVC of ATP-induced currents, S15V-hP2X3R expressed in X. laevis oocytes (peak current protocol); format: cell-based; details: for pIC50 / inhibition at 1000 µM: 1 µM ATP; for pIC50: 30-s preincubation of antagonist, X. laevis oocytes, −60 mV, geometric mean; for inhibition at 1000 µM: 1 mM antagonist, mean ± SEM, read-out: Max. inhibition at 1 mM; for reversibility of the inhibitory effect by washout: subsequent control current after washout
# T1 construct: expressed in transfected cells; host or cells: Xenopus laevis oocytes (cRNA injection)
# T1 sequence (P56373 1-397 S15V): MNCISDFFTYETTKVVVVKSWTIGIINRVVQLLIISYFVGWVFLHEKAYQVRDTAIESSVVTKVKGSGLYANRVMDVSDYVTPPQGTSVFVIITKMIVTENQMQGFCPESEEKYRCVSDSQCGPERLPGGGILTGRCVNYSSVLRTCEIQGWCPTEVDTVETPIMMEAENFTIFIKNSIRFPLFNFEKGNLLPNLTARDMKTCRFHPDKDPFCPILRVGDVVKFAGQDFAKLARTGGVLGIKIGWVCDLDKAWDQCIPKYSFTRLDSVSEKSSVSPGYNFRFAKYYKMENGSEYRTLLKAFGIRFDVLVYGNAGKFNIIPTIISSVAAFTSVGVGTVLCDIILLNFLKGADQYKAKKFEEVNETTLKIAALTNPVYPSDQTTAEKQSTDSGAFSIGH
# Source text: Oocyte expression plasmids encoding the wild-type (wt) and N-terminally His-tagged (His-) fusion constructs of the hP2X2R, hP2X3R, hP2X4R, and hP2X7R, and the mutant His-^20RMVL^23KVIV^23S^26N-hP2X1R, S^15V-rP2X3R, and His-S^15V-hP2X3R were the same as used in previous research ([Hausmann et al., 2006]; [Wolf et al., 2011]; [Hausmann et al., 2014]; [Obrecht et al., 2019]). In most cases, the N-terminal His-tagged variants of P2XRs were used here and in the previous studies to allow biochemical analyses on affinity-purified proteins using the same constructs. Although this was not required for the present study, it allows for better comparability with our previous studies. Capped cRNAs of different P2XRs were already available in the research group or were synthesized as previously described ([Schmalzing et al., 1991]; [Stolz et al., 2015]). cRNA was injected into collagenase-defolliculated X. laevis oocytes in aliquots of 41 nl or 23 nl (see Supplementary Table S1 for the amount of cRNA used for expression of the indicated P2XR) using a Nanoliter 2000 injector (World Precision Instruments, Sarasota, United States of America) as described previously ([Hausmann et al., 2014]; [Stolz et al., 2015]; [Obrecht et al., 2019]). To express the heteromeric hP2X2/3 receptor, cRNAs encoding His-hP2X2R and wt-hP2X3R were coinjected at a ratio (w/w) of 1:6. Oocytes were stored at 19°C in an oocyte ringer solution (ORi^+) containing 90 mM NaCl, 1 mM KCl, 1 mM CaCl2, 1 mM MgCl2, and 10 mM HEPES (Carl Roth, Karlsruhe, Germany) adjusted to pH 7.4 with NaOH and supplemented with 50 μg/ml gentamicin (AppliChem, Darmstadt, Germany). The procedures followed for the maintenance of and the surgical treatment for X. laevis adults were approved by the governmental animal care and use committee of the State Agency for Nature, Environment, and Consumer Protection (LANUV, Recklinghausen, Germany; reference no. 81-02.04.2019. A355), in compliance with Directive 2010/63/EU of the European Parliament and of the Council on the protection of animals used for scientific purpose.
# Ion currents mediated by P2X receptors were evoked by the indicated concentration of ATP or α,β-meATP and were recorded 1 or 2 days after cRNA injection at ambient temperature at a holding potential of −60 mV by two-electrode voltage clamp (TEVC) as previously described ([Hausmann et al., 2006]). Calcium-free ORi^− solution (90 mM NaCl, 1 mM KCl, 2 mM MgCl2, 10 mM HEPES, pH 7.4) was used to avoid bias due to calcium-activated chloride channels (CaCC) endogenously expressed in X. laevis oocytes ([Miledi, 1982]; [Methfessel et al., 1986]). For recordings of wt-hP2X7R, the composition of the ORi^− solution was modified according to protocols described previously and contained 100 mM NaCl, 2.5 mM KCl, 1 mM MgCl2, 5 mM HEPES, pH 7.4 ([Klapperstück et al., 2000]). The oocytes were continuously superfused with ORi^− by gravity flow (5–10 ml/min). The agonists ATP or α,β-meATP and the investigated NSAIDs were diluted in ORi^− on the day of the recording. […] A peak current protocol (Supplementary Figure S1) was used to analyze fast- and intermediate desensitizing P2XR subtypes (P2X1R, P2X3R, and S^15V-P2X3R), and a steady-state protocol (Supplementary Figure S2) was used for slowly or partially desensitizing P2X subtypes (P2X2R, P2X2/3R, and P2X4R). For recordings of P2X7R, a modified steady-state protocol was used ([Hausmann et al., 2006]). The application of different bath solutions was controlled by computer-operated magnetic valves controlled by the CellWorks E 5.5.1 software (npi electronic, Tamm, Germany).
# Antagonist concentration–response data and IC50 values were calculated by normalizing ATP-induced responses to the control responses (recorded in the presence and absence of the antagonist, respectively). […]
# [2] = cited from earlier work
SMILES,pIC50 [1],inhibition at 1000 µM [1] [%],reversibility of the inhibitory effect by washout [1],"plasma levels, transdermal, repetitive application ([2]; applied transdermally, even with repetitive application, ref Drago et al., 2017) [nM]",reduction of current amplitude in the presence of 3–10 µM diclofenac ([1]; 3–10 µM diclofenac),"inhibition at 3 µM ([1]; read-out: % inhibition of 10 µM ATP-induced currents by 3 µM diclofenac, 3 µM diclofenac, 10 µM ATP, ± SEM) [%]","inhibition at 30 µM ([1]; read-out: % inhibition of 10 µM ATP-induced currents by 30 µM diclofenac, 30 µM diclofenac, 10 µM ATP, ± SEM) [%]","plasma levels, intramuscular injection ([2]; injected intramuscularly, ref Drago et al., 2017)","maximum plasma levels, oral ([2]; oral application of 50–75 mg diclofenac, ref Kurowski et al., 1994, Kienzler et al., 2010)","plasma levels, transdermal application ([2]; transdermal application, ref Efe et al., 2014)"
"O=C(O)c1ccccc1Nc1cccc(C(F)(F)F)c1 [Flufenamic acid, flufenamic acid]",3.66 and 3.65,69.8,not reversible,≤ 180,–,–,–,–,–,–
"O=C(O)Cc1ccccc1Nc1c(Cl)cccc1Cl [Diclofenac, diclofenac]",3.86,~80,not reversible,–,20%–30%,-1.6,24,approximately 1.8 μg/ml and ~6 μM,2.3–2.6 μg/ml and 7–8 μM,low nanomolar
